The record followed here is publication PMC11593036, “Comparative Characterization of Three Homologous Glutathione Transferases from the Weed Lolium perenne” (Foods, 2024).

For orientation: Km means the substrate concentration at which the rate is half of its maximum.

Common to all, as to experiment: steady-state kinetics
Holding throughout (format): biochemical

In one test the target is T1, LpGSTU5 (Lolium perenne, UniProt A0A165FYU2).
T1 construct: gene GST; full-length cDNA from leaf mRNA in pEXP5-CT/TOPO, E. coli BL21(DE3), GSH-Sepharose; reverse primer carries stop codon (no C-terminal tag); primer-encoded N-terminus MASEKSS
T1 sequence (A0A165FYU2 1-226): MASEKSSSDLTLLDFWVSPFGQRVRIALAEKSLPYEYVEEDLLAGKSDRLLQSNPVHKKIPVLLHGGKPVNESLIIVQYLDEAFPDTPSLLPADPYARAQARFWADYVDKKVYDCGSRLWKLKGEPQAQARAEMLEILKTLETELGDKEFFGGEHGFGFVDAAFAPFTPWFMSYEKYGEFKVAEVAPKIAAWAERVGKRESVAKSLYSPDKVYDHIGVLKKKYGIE
Conditions: co-substrate GSH; sigmoid, positive cooperativity between the two H-sites; read-out: Km (mM) (CDNB). An excerpt:
steady-state kinetics on LpGSTU5

Another test deals with T2, LpGSTU2 (Lolium perenne, UniProt A0A165FYT0).
T2 construct: gene GST; full-length cDNA from leaf mRNA in pEXP5-CT/TOPO, E. coli BL21(DE3), GSH-Sepharose; reverse primer carries stop codon (no C-terminal tag); primer-encoded N-terminus MASEKSS
T2 sequence (A0A165FYT0 1-226): T1 sequence (A0A165FYU2 1-226) with S32N, D48E, A93S, S117T
Conditions: co-substrate GSH; read-out: Km (mM) (CDNB). The text has this:
steady-state kinetics on LpGSTU2

For test [1], the target named is T3, LpGSTU25 (Lolium perenne, UniProt A0A165FYR3, F215V).
T3 construct: gene GST; full-length cDNA from leaf mRNA in pEXP5-CT/TOPO, E. coli BL21(DE3), GSH-Sepharose; reverse primer carries stop codon (no C-terminal tag); primer-encoded N-terminus MASEKSS
T3 sequence (A0A165FYR3 1-226 F215V): T1 sequence (A0A165FYU2 1-226) with V56A, L122F, R131K, H215V, K221Q
The settings on record: co-substrate GSH; read-out: Km (mM) (CDNB). The text has this:
(§1) steady-state kinetics on LpGSTU25

The target in test [2] is T4, LpGSTU25 (Lolium perenne, UniProt A0A165FYR3).
T4 construct: gene GST; full-length cDNA from leaf mRNA in pEXP5-CT/TOPO, E. coli BL21(DE3), GSH-Sepharose; reverse primer carries stop codon (no C-terminal tag); primer-encoded N-terminus MASEKSS
T4 sequence (A0A165FYR3 1-226): T1 sequence (A0A165FYU2 1-226) with V56A, L122F, R131K, H215F, K221Q
Conditions: co-substrate GSH; read-out: Km (mM) (CDNB).
Excerpt: as §1

The target of test [3] is T5, LpGSTU25 (Lolium perenne, UniProt A0A165FYR3, F215H).
T5 construct: gene GST; full-length cDNA from leaf mRNA in pEXP5-CT/TOPO, E. coli BL21(DE3), GSH-Sepharose; reverse primer carries stop codon (no C-terminal tag); primer-encoded N-terminus MASEKSS
T5 sequence (A0A165FYR3 1-226 F215H): T1 sequence (A0A165FYU2 1-226) with V56A, L122F, R131K, K221Q
Conditions: co-substrate GSH; read-out: Km (mM) (CDNB).
Excerpt: as §1

Test [4] deals with T6, LpGSTU25 (Lolium perenne, UniProt A0A165FYR3, F215R).
T6 construct: gene GST; full-length cDNA from leaf mRNA in pEXP5-CT/TOPO, E. coli BL21(DE3), GSH-Sepharose; reverse primer carries stop codon (no C-terminal tag); primer-encoded N-terminus MASEKSS
T6 sequence (A0A165FYR3 1-226 F215R): T1 sequence (A0A165FYU2 1-226) with V56A, L122F, R131K, H215R, K221Q
Conditions: co-substrate GSH; read-out: Km (mM) (CDNB).
Excerpt: as §1

The target of test [5] is T7, LpGSTU25 (Lolium perenne, UniProt A0A165FYR3, F215K).
T7 construct: gene GST; full-length cDNA from leaf mRNA in pEXP5-CT/TOPO, E. coli BL21(DE3), GSH-Sepharose; reverse primer carries stop codon (no C-terminal tag); primer-encoded N-terminus MASEKSS
T7 sequence (A0A165FYR3 1-226 F215K): T1 sequence (A0A165FYU2 1-226) with V56A, L122F, R131K, H215K, K221Q
Conditions: co-substrate GSH; read-out: Km (mM) (CDNB).
Excerpt: as §1

For test [6], the target named is T8, LpGSTU25 (Lolium perenne, UniProt A0A165FYR3, F215T).
T8 construct: gene GST; full-length cDNA from leaf mRNA in pEXP5-CT/TOPO, E. coli BL21(DE3), GSH-Sepharose; reverse primer carries stop codon (no C-terminal tag); primer-encoded N-terminus MASEKSS
T8 sequence (A0A165FYR3 1-226 F215T): T1 sequence (A0A165FYU2 1-226) with V56A, L122F, R131K, H215T, K221Q
Conditions: co-substrate GSH; read-out: Km (mM) (CDNB).
Excerpt: as §1

Test [7] addresses T9, LpGSTU25 (Lolium perenne, UniProt A0A165FYR3, F215S).
T9 construct: gene GST; full-length cDNA from leaf mRNA in pEXP5-CT/TOPO, E. coli BL21(DE3), GSH-Sepharose; reverse primer carries stop codon (no C-terminal tag); primer-encoded N-terminus MASEKSS
T9 sequence (A0A165FYR3 1-226 F215S): T1 sequence (A0A165FYU2 1-226) with V56A, L122F, R131K, H215S, K221Q
Conditions: co-substrate GSH; read-out: Km (mM) (CDNB).
Excerpt: as §1

Test [8] deals with T10, LpGSTU25 (Lolium perenne, UniProt A0A165FYR3, F215L).
T10 construct: gene GST; full-length cDNA from leaf mRNA in pEXP5-CT/TOPO, E. coli BL21(DE3), GSH-Sepharose; reverse primer carries stop codon (no C-terminal tag); primer-encoded N-terminus MASEKSS
T10 sequence (A0A165FYR3 1-226 F215L): T1 sequence (A0A165FYU2 1-226) with V56A, L122F, R131K, H215L, K221Q
The settings on record: co-substrate GSH; read-out: Km (mM) (CDNB).
Excerpt: as §1

The target of test [9] is T11, LpGSTU25 (Lolium perenne, UniProt A0A165FYR3, F215Y).
T11 construct: gene GST; full-length cDNA from leaf mRNA in pEXP5-CT/TOPO, E. coli BL21(DE3), GSH-Sepharose; reverse primer carries stop codon (no C-terminal tag); primer-encoded N-terminus MASEKSS
T11 sequence (A0A165FYR3 1-226 F215Y): T1 sequence (A0A165FYU2 1-226) with V56A, L122F, R131K, H215Y, K221Q
Conditions: co-substrate GSH; read-out: Km (mM) (CDNB).
Excerpt: as §1

Substitutions are numbered along the chain they refer to.

Regarding `O=[N+]([O-])c1ccc(Cl)c([N+](=O)[O-])c1` [CDNB], the Km on LpGSTU5 came to 0.1 ± 0.04 mM; on LpGSTU2 it was 0.47 ± 0.03 mM; on LpGSTU25 [1], 0.29 ± 0.02 mM; at LpGSTU25 [2], 0.28 ± 0.03 mM; on LpGSTU25 [3] it was 0.68 ± 0.08 mM; at LpGSTU25 [4], 0.92 ± 0.32 mM. The Km at LpGSTU25 [5] was determined as 0.77 ± 0.07 mM; on LpGSTU25 [6], 0.31 ± 0.03 mM; at LpGSTU25 [7], 0.33 ± 0.03 mM; on LpGSTU25 [8], 0.25 ± 0.02 mM; at LpGSTU25 [9], 0.91 ± 0.12 mM.
